From patent US8969247B2, “Method for controlling aquatic weeds” (BASF SE, priority 2005, dated 2015)

Experiments:
Format in all cases: in vivo
Hydrilla verticillata [1] = experiment: Experiment 3: greenhouse static exposure of hydrilla to mesotrione; settings: 500 ppb
Description: (§1) Greenhouse and shade house tests were initiated to evaluate the effects of HPPD-inhibitors, exemplary topramezone and mesotrione, for the control of aquatic weeds, exemplary for the control of Hydrilla verticillata.
(§2) To begin the experiment, containers were filled and maintained with a volume of 4000 ml of distilled water at room temperature (24° C.). To each container, an established hydrilla plant (potted in sand mixture) was transferred into the water column. Hydrilla plants were selected for uniformity and length of shoot growth (approx 15 cm). Plants were allowed to equilibrate in the columns for 24 hrs prior to herbicide treatment. Experimental treatments included an untreated control and mesotrione at 500 ppb. Treatments were applied to water columns by the use of a pipette. Amount of herbicide applied was based on the total volume of the containers (4000 ml). After initial herbicide treatment, the water columns were gently stirred to ensure uniform distribution. Treatments were arranged as a complete random design with 3 replications. Each container was considered the experimental unit. Greenhouse conditions were maintained at 24/18° C. (day/night) cycle for the duration of the experiment. Natural day length was supplemented with halogen lighting to provide a 14 hr photoperiod. Water level in the containers was periodically checked and maintained at the 4000 ml level for the duration of the study. At the end of four weeks, hydrilla shoot length and fresh weights were recorded.

Hydrilla verticillata [2] = experiment: Experiment 1: greenhouse static exposure of hydrilla to topramezone; settings: 500 ppb
Description: as §1
as §2, with “topramezone” for “mesotrione”

Hydrilla verticillata [3] = experiment: Experiment 2: shade house (outdoor) static exposure of hydrilla to topramezone; settings: for Hydrilla Shoot Weight: 8 weeks after treatment, dry weight biomass, control 1.5 g, LSD (0.05) 0.2
Description: as §1
Experiment 2 was conducted under shade house (outdoor) conditions. Four 4-liter pots were filled with 15 to 20 cm of sand medium plus amended fertilizer (15 grams Osmocote®^1 19-6-12). Four actively growing Hydrilla verticillata tips (10 to 15 cm in length) were planted 1 to 2 cm deep in medium. The four 4-liter pots were placed in 100-liter containers and covered fully with tap water. Plants were treated 15 days after planting once plant elongation and active growth were observed. There were three 100-liter containers per water treatment (three replications) with four sub-sample 4-liter pots and four Hydrilla verticillata plants per 4-liter pot. Treatments were arranged as a complete random design. ^1 Osmocote®—manufactured by: Scotts-Sierra Horticutural Products Company, Marysville, Ohio 43401 U.S.A
Water treatments of 50 ppb, 75 ppb, 100 ppb, 200 ppb, and 400 ppb of topramezone were installed. Plants were harvested 8 weeks after initial water treatment to determine dry weight biomass reductions compared to the untreated check.

[4] = approximately 14 days after treatment

SMILES	Visual observations (Hydrilla verticillata [1]; [4])	Reduction in shoot biomass (Student's t-Test) (Hydrilla verticillata [1]; end of the study (4 weeks))	Reduction in shoot length (Student's t-Test) (Hydrilla verticillata [1]; end of the study (4 weeks))	Hydrilla Fresh Weight (Hydrilla verticillata [1]; static exposure, 4 weeks after treatment, control 4.4 g) [grams]	Hydrilla Shoot Length (Hydrilla verticillata [1]; static exposure, 4 weeks after treatment, control 24 cm) [cm]	Visual observations (Hydrilla verticillata [2]; [4])	Reduction in shoot length and biomass (Student's t-Test) (Hydrilla verticillata [2]; end of the study (4 weeks))	Effect on hydrilla tissue vs. the untreated control (Hydrilla verticillata [2]; over the course of the study)	Hydrilla Fresh Weight (Hydrilla verticillata [2]; static exposure, 4 weeks after treatment, control 17 g) [grams]	Hydrilla Shoot Length (Hydrilla verticillata [2]; static exposure, 4 weeks after treatment, control 37 cm) [cm]	Hydrilla Shoot Weight (Hydrilla verticillata [3]; 50 ppb) [grams]	Reduction in shoot biomass vs. the untreated control (Hydrilla verticillata [3]; 50 to 400 ppb, end of the study (8 weeks))	Hydrilla Shoot Weight (Hydrilla verticillata [3]; 75 ppb) [grams]	Hydrilla Shoot Weight (Hydrilla verticillata [3]; 100 ppb) [grams]	Hydrilla Shoot Weight (Hydrilla verticillata [3]; 200 ppb) [grams]	Hydrilla Shoot Weight (Hydrilla verticillata [3]; 400 ppb) [grams]
CS(=O)(=O)c1ccc(C(=O)C2C(=O)CCCC2=O)c([N+](=O)[O-])c1 [mesotrione]	significant bleaching and reddening in the new grown tips	significant reduction in shoot biomass	did not observe a significant reduction in shoot length	1.4	16											
Cc1c(C(=O)c2cnn(C)c2O)ccc(S(C)(=O)=O)c1C1=NOCC1 [topramezone]						significant bleaching and reddening in the new grown tips	significant reductions in both shoot length and biomass	stunting and dieback of hydrilla tissue	0.3	6	1.3	significant reductions in shoot biomass	0.8	0.8	0.7	0.6
